Reference: publication PMC4865847, “Putative histidine kinase inhibitors with antibacterial effect against multi-drug resistant clinical isolates identified by in vitro and in silico screens” (Scientific Reports, 2016)
Values after ≈ are worked out from the molar mass of the structure shown. Where two headings read alike, the source gives them in different places.

Columns and labels:
E. coli PhoR (PhoR^E) = target: T1, E. coli PhoR (PhoR^E) (Escherichia coli, UniProt P08400); experiment: In vitro autophosphorylation kinase assay with γ-32P-ATP, PhoR^E; format: biochemical; details: autophosphorylation, one time point (30 sec), 10% DMSO; read-out: IC50 PhoR^E
T1 construct: The catalytic portion (DHp and CA domain) of E. coli PhoR (PhoR^E); made in house; host or cells: E. coli RIL
T1 sequence (P08400 210-425): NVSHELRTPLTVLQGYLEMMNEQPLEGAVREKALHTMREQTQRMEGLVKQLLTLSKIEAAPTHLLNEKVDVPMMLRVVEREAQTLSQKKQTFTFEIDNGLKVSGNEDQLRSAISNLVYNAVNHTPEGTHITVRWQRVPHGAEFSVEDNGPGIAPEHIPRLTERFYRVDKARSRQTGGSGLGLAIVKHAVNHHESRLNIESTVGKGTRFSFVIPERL
Procedure: (§1) To evaluate the inhibitory capacity of selected hits from DSF, SBVS and LBSS in vitro autophosphorylation kinase assays with γ-^32P-ATP were performed as previously described. Ligands were dissolved in 100% DMSO. […] Controls lacking ligands contained an equal concentration of DMSO. Inhibition of autophosphorylation was determined by incubating 0.12 mg/ml (≈4 μM) HK and up to 20 mM fragment in kinase buffer (50 mM Tris HCl, pH 8.5, 50 mM KCl, 5 mM MgCl2, 0.5 mM EDTA and 0.1 mM DTT). Autophosporylation reactions were initiated by addition of 0.1 μCi/μl γ-^32P-ATP containing from 0.03 to 0.06 μM ATP (final concentrations). Autophosphorylation was quenched with 2xSDS-PAGE sample buffer supplemented with 50 mM EDTA. […] After electrophoresis, the bottoms of the gels were removed to lower the background from the unincorporated radiolabeled ATP. Gels were dried without staining on a Bio-Rad Gel Air drying system and the phosphorylated protein was quantified by phosphor-imaging. Prism GraphPad was used for curve fitting and statistical analysis.

Acinetobacter baumannii = experiment: Antibacterial susceptibility testing (MIC), A. baumannii; format: cell-based
Procedure: (§2) Bacterial strains used in this study for antibacterial susceptibility testing (Table S5) were propagated using standard microbiological procedures. Minimal inhibitory concentrations (MICs) were determined following a standard double-dilution method. MICs were recorded as the lowest concentration of the compound where no visible growth was observed. After plating the dilutions around the MIC or growing them in fresh MH media, minimal bactericidal concentration (MBC) was recorded as the lowest concentration of the compound at which no colonies were formed or no growth was observed, respectively. For S. pneumoniae MICs were determined by adapting the standard double-dilution method to anaerobic conditions and of this microorganism (use of Todd Hewitt Yeast extract with 200 U/mL of catalase and continuous monitoring of growth).

Hemolysis assay = format: cell-based; details: human
Procedure: Hemolytic activity against human erythrocytes taken from a healthy donor was measured as previously described. The hemolysis experiments were carried out in accordance with the guidelines of the United Arab Emirates University (UAEU) Research Ethics Review Board. All experimental protocols were approved by the Research Ethics Review Board of UAEU and informed consent was obtained from all donors.

[1] = tested on: Staphylococcus epidermidis; experiment: Antibacterial susceptibility testing (MIC/MBC), S. epidermidis; format: cell-based; details: Staphylococcus epidermidis; for MBC: DSM20044, strain DSM 20044
Procedure: (§3) Minimal inhibitory concentrations (MICs) were determined following a standard double-dilution method. […] For S. pneumoniae MICs were determined by adapting the standard double-dilution method to anaerobic conditions and of this microorganism (use of Todd Hewitt Yeast extract with 200 U/mL of catalase and continuous monitoring of growth).

S. pneumoniae WalK = target: T2, S. pneumoniae WalK (Streptococcus pneumoniae, UniProt Q8DPL8); experiment: In vitro autophosphorylation kinase assay with γ-32P-ATP, WalK; format: biochemical; details: for IC50: autophosphorylation, one time point (30 sec), 10% DMSO, read-out: IC50 WalK
T2 construct: WalK (amino acids from 208 to 449); N-terminal His6-3C site of vector pOPINF (own knowledge of the vector); made in house; host or cells: E. coli RIL
T2 sequence (Q8DPL8 208-449): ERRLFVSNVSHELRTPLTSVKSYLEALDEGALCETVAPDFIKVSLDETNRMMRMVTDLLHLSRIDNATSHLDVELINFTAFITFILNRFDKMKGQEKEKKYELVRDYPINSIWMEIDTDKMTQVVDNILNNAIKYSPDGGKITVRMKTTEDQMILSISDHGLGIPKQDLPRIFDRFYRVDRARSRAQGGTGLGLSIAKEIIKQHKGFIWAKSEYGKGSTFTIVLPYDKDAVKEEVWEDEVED
Procedure: as §1

Streptococcus suis = experiment: Antibacterial susceptibility testing (MIC), S. suis; format: cell-based; details: for MIC: Streptococcus suis, read-out: MIC Streptococcus suis 3881/S10, strain 3881/S10
Procedure: as §2

Klebsiella pneumoniae = experiment: Antibacterial susceptibility testing (MIC), K. pneumoniae; format: cell-based; details: Klebsiella pneumoniae, ATCC700603, strain ATCC 700603
Procedure: as §2

Escherichia coli = experiment: Antibacterial susceptibility testing (MIC/MBC), E. coli; format: cell-based; details: Escherichia coli
Procedure: as §3

Pseudomonas aeruginosa = experiment: Antibacterial susceptibility testing (MIC), P. aeruginosa; format: cell-based; details: Pseudomonas aeruginosa, ATCC27853; strain ATCC 27853
Procedure: as §2

Staphylococcus aureus = experiment: Antibacterial susceptibility testing (MIC/MBC), S. aureus; format: cell-based; details: Staphylococcus aureus; for MBC: DSM20231, strain DSM 20231, read-out: MBC S. aureus DSM 20231
Procedure: as §3

Streptococcus pneumoniae = experiment: Antibacterial susceptibility testing (MIC), S. pneumoniae; format: cell-based; details: strain 49619
Procedure: as §2

[2] = tested on: Stenotrophomonas maltophilia; experiment: Antibacterial susceptibility testing (MIC), S. maltophilia; format: cell-based
Procedure: as §2

[3] = MDR clinical isolate NM8, read-out: MIC A. baumannii NM8
[4] = strain RP62A (biofilm producer), read-out: MIC S. epidermidis RP62A
[5] = ATCC25276, strain ATCC 25276, read-out: MIC E. coli ATCC 25276
[6] = strain CFT 073, read-out: MIC E. coli CFT 073
[7] = ATCC reference strain 25293, read-out: MIC S. aureus 25293
[8] = MRSA clinical isolate 127/08, read-out: MIC S. aureus 127/08
[9] = MRSA clinical isolate 145/08, read-out: MIC S. aureus 145/08
[10] = MRSA clinical isolate 274/08, read-out: MIC S. aureus 274/08
[11] = MRSA, MRSA clinical isolate S908, read-out: MIC S. aureus S908
[12] = MRSA, MRSA clinical isolate T4/6, read-out: MIC S. aureus T4/6
[13] = MRSA, MRSA clinical isolate V4180, read-out: MIC S. aureus V4180
[14] = MRSA, summary over strains, read-out: MICs for the MRSA strains and S. aureus 25293
[15] = clinical isolate B32/1, read-out: MIC S. maltophilia B32/1

SMILES | IC50 (E. coli PhoR (PhoR^E)) [µM] | MIC (Acinetobacter baumannii; [3]) [µg/mL] | HC50 (Hemolysis assay) [µg/mL] | MBC [1] [µg/mL] | MIC [1, 4] [µg/mL] | IC50 (S. pneumoniae WalK) [µM] | MIC (Streptococcus suis) [µg/mL] | MIC (Klebsiella pneumoniae) [µg/mL] | MIC (Escherichia coli; [5]) [µg/mL] | MIC (Escherichia coli; [6]) [µg/mL] | MIC (Pseudomonas aeruginosa) [µg/mL] | MIC (Staphylococcus aureus; [7]) [µg/mL] | MBC (Staphylococcus aureus) [µg/mL] | MIC (Staphylococcus aureus; [8]) [µg/mL] | MIC (Staphylococcus aureus; [9]) [µg/mL] | MIC (Staphylococcus aureus; [10]) [µg/mL] | MIC (Staphylococcus aureus; [11]) [µg/mL] | MIC (Staphylococcus aureus; [12]) [µg/mL] | MIC (Staphylococcus aureus; [13]) [µg/mL] | MIC (Staphylococcus aureus; [14]) [µg/mL] | other results
Nc1nc(-c2ccccc2Cl)cs1 [F1.6] | > 2000 | > 500 | > 500 | 500 (≈ 2370 µM) | > 500 | < 2000 | > 500 | > 500 | > 500 | > 500 | > 500 | 250 (≈ 1190 µM) | 250 (≈ 1190 µM) | 250 (≈ 1190 µM) | 250 (≈ 1190 µM) | 500 (≈ 2370 µM) | 500 (≈ 2370 µM) | 250 (≈ 1190 µM) | > 500 | 125 to 500 (≈ 593 to 2370 µM) | MIC ([1]; clinical isolate T7/3, read-out: MIC S. epidermidis T7/3): 125 µg/mL (≈ 593 µM); MIC ([1]; clinical isolate T37/8, read-out: MIC S. epidermidis T37/8): > 500 µg/mL; MIC ([1]; clinical isolate T6119, read-out: MIC S. epidermidis T6119): > 500 µg/mL; MIC ([1]; strain RP62A/1 (non-biofilm producer), read-out: MIC S. epidermidis RP62A/1): > 500 µg/mL; MIC ([1]; summary over clinical isolates, read-out: MICs for S. epidermidis clinical isolates): 125 µg/mL (≈ 593 µM); inhibition at 2000 µM (S. pneumoniae WalK; 2 mM, 30 sec, compared to negative control): > 50%; MIC (Streptococcus pneumoniae): 256 µg/mL (≈ 1220 µM); MIC [2, 15]: > 500 µg/mL
CC(C)NCC(O)COc1cccc2[nH]c3ccccc3c12 (stereo not drawn) [F2.4] | > 2000 | 500 (≈ 1680 µM) | > 500 | 500 (≈ 1680 µM) | > 500 | > 2000 | 125 (≈ 419 µM) | > 500 | 500 (≈ 1680 µM) | 500 (≈ 1680 µM) | > 500 | 125 (≈ 419 µM) | 250 (≈ 838 µM) | 500 (≈ 1680 µM) | 250 (≈ 838 µM) | 500 (≈ 1680 µM) | 500 (≈ 1680 µM) | > 500 | 500 (≈ 1680 µM) | 125 to 500 (≈ 419 to 1680 µM) | MIC (Acinetobacter baumannii; MDR clinical isolate NM35, read-out: MIC A. baumannii NM35): > 500 µg/mL; MIC (Acinetobacter baumannii; MDR clinical isolate NM75, read-out: MIC A. baumannii NM75): > 500 µg/mL; MIC (Acinetobacter baumannii; MDR clinical isolate NM109, read-out: MIC A. baumannii NM109): 500 µg/mL (≈ 1680 µM); MIC (Acinetobacter baumannii; MDR clinical isolate NM124, read-out: MIC A. baumannii NM124): 500 µg/mL (≈ 1680 µM); MIC (Acinetobacter baumannii; summary over strains, read-out: MICs for A. baumannii strains): 500 µg/mL (≈ 1680 µM); MIC Streptococcus suis 3881/S10 (Streptococcus suis; strain 3881/S10): 250 µg/mL (≈ 838 µM); MBC (Escherichia coli; strain CFT 073, read-out: MBC E. coli CFT 073): 500 µg/mL (≈ 1680 µM); MIC (Streptococcus pneumoniae): 64 µg/mL (≈ 214 µM); MIC ([2]; clinical isolate B5/5, read-out: MIC S. maltophilia B5/5): > 500 µg/mL; MIC ([2]; clinical isolate B6/2, read-out: MIC S. maltophilia B6/2): 500 µg/mL (≈ 1680 µM); MIC [2, 15]: 500 µg/mL (≈ 1680 µM); MIC ([2]; summary over strains, read-out: MICs for S. maltophilia strains): 500 µg/mL (≈ 1680 µM)
